# Patent US5445941A, “Method for screening anti-osteoporosis agents” (Eli Lilly and Company, priority 1993, dated 1995)
# How the values were obtained:
# [1] = tested on: estrogen responsive element (ERE) of the vitellogenin promoter; assay: Luciferase reporter induction, pGL2ERELUC (vitellogenin ERE) and pRSVER in MG63 cells; format: cell-based, human; settings: for reporter gene expression, pGL2ERELUC: control 1.7
# Description: Complementary oligonucleotides corresponding to the estrogen-responsive element (ERE) from the Xenopus laevis vitellogenin Az gene promoter (corresponding to positions -341 to -310; Metzger et al., 1988, Nature 334: 31-36) were designed, synthesized and annealed to form a double-stranded region that is an estrogen responsive element essentially as described in Example I. A sequence comprising an XhoI restriction enzyme recognition site was synthesized to be flanking the ERE sequences, the element having the following nucleotide sequence (shown as SEQ ID NOS:8 and 9, respectively):
# The double-stranded ERE was subcloned into XhoI-digested […] (Promega) whereby the luciferase gene was placed under the transcriptional influence of the ERE. This plasmid was designated pGL2ERELUC and used in further experiments as described below (Example VI).
# Similar assays were performed using cultures of MG63 cells transiently transfected with pGL2ERELUC and pRSVER.
# Transfected cells were treated with varying amounts and combinations of hormones and then rinsed twice with D-PBS. Cells were then lysed upon incubation with 250 μL of eukaryotic cell lysis reagent (as described in Example VI) at 4° C. for 20 min and transferred to microcentrifuge tubes by scraping with a rubber policeman. Cell lysates were centrifuged at 14,000 rpm for 1 minute to remove cell debris. Cell extracts (supernatant) were then assayed for protein content and luciferase activities.
# Luciferase assays were performed as follows. 50 μL of each cell extract was added to 100 μL of reagent A buffer (containing 4.0 mM ATP/15 mM MgSO4 / 30 mM tricine buffer (pH 7.8)/ 10 mM DTT) in individual wells of a microtiter plate. 100 μL of 1 mM D(-)-luciferin (in 0.1M KPO4 (pH 7.8); Boehringer Mannheim) were added to each well and the amount of light produced measured by using a ML3000 microtiter plate luminometer (under conditions of integrate flash mode, high gain, integrate window=10 seconds, at a temperature of 22° C.). Luciferase activities were calculated as total light output relative to protein content in each cell lysate sample.
# TGFβ-2 mRNA = settings: T-47D and MDA-MB-231; cited from earlier work
# [2] = tested on: estrogen responsive elements; settings: in vitro; cited from earlier work
# [3] = tested on: LDL receptor messenger RNA; settings: in vivo; cited from earlier work
smiles,measurement,setting,value
"C[C@]12CC[C@@H]3c4ccc(O)cc4CC[C@H]3[C@@H]1CC[C@@H]2O [estradiol, 17β-estradiol]",induction of vitellogenin gene transcription (in words),[1],strongly induced
same,"reporter gene expression, pGL2ERELUC",[1]; 10^-5 M,6.5
same,"reporter gene expression, pGL2ERELUC",[1]; 10^-6 M,6.2
same,"reporter gene expression, pGL2ERELUC",[1]; 10^-7 M,5.9
same,"reporter gene expression, pGL2ERELUC",[1]; 10^-8 M,5.5
same,"reporter gene expression, pGL2ERELUC",[1]; 10^-9 M,5.8
same,TGFβ-2 mRNA expression (in words),TGFβ-2 mRNA,reduced TGFβ-2 mRNA expression
same,binding of estrogen receptor complex to estrogen responsive elements (in words),[2],bind in vitro to DNA binding domains called estrogen responsive elements
same,LDL receptor messenger RNA (in words),[3],induces LDL receptor messenger RNA in vivo
